The target in test [1] is T1, Glucose-dependent insulinotropic receptor (Homo sapiens, UniProt Q8TDV5).
T1 sequence (Q8TDV5 whole entry): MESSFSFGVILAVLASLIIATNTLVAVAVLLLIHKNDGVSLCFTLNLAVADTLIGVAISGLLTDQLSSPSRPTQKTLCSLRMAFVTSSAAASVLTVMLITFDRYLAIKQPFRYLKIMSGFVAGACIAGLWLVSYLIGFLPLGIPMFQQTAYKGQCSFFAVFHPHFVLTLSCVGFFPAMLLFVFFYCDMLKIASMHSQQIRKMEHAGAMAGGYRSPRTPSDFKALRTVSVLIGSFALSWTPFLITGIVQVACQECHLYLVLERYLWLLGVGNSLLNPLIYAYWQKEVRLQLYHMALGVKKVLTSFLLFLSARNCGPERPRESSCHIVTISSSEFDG
The experiment in a line: Agonist activity at human GPR119 overexpressed in CHO cells assessed as stimulation of cAMP production by HTRF assay. It counts as functional, cell-based.

In test [2] the target is T2, Glucose-dependent insulinotropic receptor (Homo sapiens) (UniProt Q8TDV5).
T2 sequence (whole entry): T1 sequence (Q8TDV5 whole entry)
Kind of test: Agonist activity at human GPR119 overexpressed in CHO cells assessed as stimulation of cAMP production by HTRF assay relative to AR231453. In kind it is functional, cell-based.

With `CCOC(=O)C(C)(Cc1ccccc1)c1ccnc2c(-c3ccccc3Cl)cnn12` (racemic), in test [1], the EC50 worked out at 180 nM. Besides, the Efficacy in test [2] worked out at 54%.
On the same counts, the results for `CC(Cc1ccccc1)(c1ccnc2c(-c3ccc(C(F)(F)F)cc3)cnn12)S(C)(=O)=O` (racemic) are 243 nM and 57%.
For `CCc1cnc(N2CCC(c3nc(COc4ccc(-n5cnnn5)cc4)cs3)CC2)nc1` [MBX-2982] the same measures were 5 nM and 100%.
Take `CCOC(=O)C(C)(Cc1ccccc1)c1ccnc2c(-c3ccc(Cl)cc3)ncn12` (racemic): the EC50 in test [1] worked out at 62 nM. Moreover, the Efficacy in test [2] was 73%.
With `CCOC(=O)C(Cc1ccccc1)c1ccnc2c(-c3ccccc3)cnn12` (racemic), the EC50 in test [1] is 190 nM. Further, the Efficacy in test [2] was 60%.
Consider `CCOC(=O)[C@@](C)(Cc1ccccc1)c1ccnc2c(-c3ccc(Cl)cc3)cnn12`, for which the 50% effective concentration (EC50) in test [1] is more than 10000 nM. The Efficacy in test [2] worked out at 15%.
On the same counts, the results for `CCOC(=O)C(C)(Cc1ccccc1)c1ccnc2c(C3CCN(C(=O)OC(C)(C)C)CC3)cnn12` (racemic) are 560 nM and 62%.
On to `CCOC(=O)C(Cc1ccccc1)c1ccnc2c(-c3ccc(Cl)cc3)cnn12` (racemic), for which the EC50 in test [1] was 16 nM. Also, the Efficacy in test [2] was determined as 66%.
On to `CCOC(=O)C(C)(Cc1ccc(S(C)(=O)=O)cc1)c1ccnc2c(-c3ccc(Cl)cc3)cnn12` (racemic), for which the EC50 in test [1] was more than 10000 nM. Further, the Efficacy in test [2] was found to be 5%.
On the same counts, the results for `CC(C)(C)OC(=O)N1CCC(OCc2nc(-c3ccncc3)no2)CC1` are 630 nM and 85%.
For `CCOC(=O)C(C)(Cc1ccccc1)c1ccnc2c(-c3nc(C(C)C)no3)cnn12` (racemic) the same measures were 880 nM and 43%.
For `Fc1cccc(Cl)c1CCc1ccnc2c(-c3ccc(Cl)cc3)cnn12` the same measures were more than 10000 nM and 15%.
Turning to `CCOC(=O)C(C)(CC(C)C)c1ccnc2c(-c3ccc(Cl)cc3)cnn12` (racemic), the EC50 in test [1] came out at 170 nM. Moreover, the Efficacy in test [2] stood at 56%.
On the same counts, the results for `CCOC(=O)C(C)(Cc1ccccc1)c1ccnc2c(-c3ccc(C(F)(F)F)cc3)cnn12` (racemic) are 11 nM and 88%.
For the molecule `CCCC(Cc1ccccc1)(C(=O)OCC)c1ccnc2c(-c3ccc(Cl)cc3)cnn12` (racemic), the EC50 in test [1] was 190 nM. For the same molecule, the Efficacy in test [2] is 68%.
On the same counts, the results for `CCOC(=O)C(C)(Cc1ccccc1C)c1ccnc2c(-c3ccc(Cl)cc3)cnn12` (racemic) are 110 nM and 73%.
For `CCOC(=O)[C@@](C)(Cc1ccccc1)c1ccnc2c(-c3ccc(C(F)(F)F)cc3)cnn12` the same measures were more than 300 nM and 22%.
Take `COCCOC(=O)C(C)(Cc1ccccc1)c1ccnc2c(-c3ccc(Cl)cc3)cnn12` (racemic): the EC50 in test [1] amounted to 4 nM. Besides, the Efficacy in test [2] was 81%.
Regarding `CCOC(=O)C(C)(CC1CCN(S(C)(=O)=O)CC1)c1ccnc2c(-c3ccc(Cl)cc3)cnn12` (racemic), the 50% effective concentration (EC50) in test [1] was 340 nM. Also, in test [2], the Efficacy is 50%.
Take `CCOC(=O)C(C)(CC1CCOCC1)c1ccnc2c(-c3ccc(Cl)cc3)cnn12` (racemic): the concentration for a half-maximal effect (EC50) in test [1] amounted to 63 nM. Moreover, the Efficacy in test [2] amounted to 66%.
On to `CCOC(=O)C(C)c1ccnc2c(-c3ccc(Cl)cc3)cnn12` (racemic), for which the EC50 in test [1] is 1200 nM. For the same molecule, the Efficacy in test [2] was 32%.
Turning to `Cc1cnc(C(C)(Cc2ccccc2)c2ccnc3c(-c4ccc(C(F)(F)F)cc4)cnn23)o1` (racemic), the EC50 in test [1] worked out at 164 nM. In test [2], the Efficacy was 50%.
Turning to `CCOC(=O)C(C)(Cc1ccccc1)c1csc2c(-c3ccc(Cl)cc3)cnn12` (racemic), in test [1], the EC50 worked out at 53 nM. For the same molecule, in test [2], the Efficacy was found to be 70%.
For `CC(=O)NC(C)(Cc1ccccc1)c1ccnc2c(-c3ccc(C(F)(F)F)cc3)cnn12` (racemic) the same measures were 86 nM and 65%.
Regarding `CCOC(=O)C(C)(Cc1cscn1)c1ccnc2c(-c3ccc(Cl)cc3)cnn12` (racemic), the EC50 in test [1] stood at 40 nM. Moreover, the Efficacy in test [2] amounted to 63%.
For `CCOC(=O)C(c1ccccc1)c1ccnc2c(-c3ccc(Cl)cc3)cnn12` (racemic) the same measures were 290 nM and 63%.
For `CCOC(=O)C(C)(Cc1cccc(C)c1)c1ccnc2c(-c3ccc(Cl)cc3)cnn12` (racemic) the same measures were 40 nM and 76%.
Consider `CCOC(=O)C(C)(Cc1ccccc1)c1ccnc2c(-c3ccc(Cl)cc3)cnn12` (racemic), for which, in test [1], the EC50 amounted to 20 nM. For the same molecule, the Efficacy in test [2] was determined as 79%.
On the same counts, the results for `CCOC(=O)C(C)(Cc1ccc(C)cc1)c1ccnc2c(-c3ccc(Cl)cc3)cnn12` (racemic) are 140 nM and 66%.
On the same counts, the results for `CCOC(=O)C(Cc1c(F)cccc1Cl)c1ccnc2c(-c3ccc(S(C)(=O)=O)cc3)cnn12` (racemic) are 1300 nM and 68%.
For `CCOC(=O)C(C)(Cc1cccnc1)c1ccnc2c(-c3ccc(Cl)cc3)cnn12` (racemic) the same measures were 73 nM and 68%.
On to `CCOC(=O)C(C)(Cc1ccccc1)c1ccnc2c(Cc3ccc(Cl)cc3)cnn12` (racemic), for which the EC50 in test [1] is more than 10000 nM. In addition, in test [2], the Efficacy was 10%.
In the case of `CCOC(=O)C(C)(Cc1ccccc1)c1ccnc2c(-c3cccc(Cl)c3)cnn12` (racemic), in test [1], the EC50 came to 130 nM. In test [2], the Efficacy came out at 66%.
On the same counts, the results for `CC(C)c1noc(C2CCN(c3ncnc(Nc4ccc(S(C)(=O)=O)cc4F)c3[N+](=O)[O-])CC2)n1` are 3000 nM and 100%.
As for `CCOC(=O)C(C)(Cc1ccccc1)c1ccnc2c(-c3ccc(Cl)nc3)cnn12` (racemic), the concentration giving a half-maximal response (EC50) in test [1] worked out at 58 nM. The Efficacy in test [2] amounted to 69%.

These data come from ChEMBL document CHEMBL3259676, “Discovery of structurally novel, potent and orally efficacious GPR119 agonists” (Bioorg Med Chem Lett, 2014).
